In article PMC11754080 (iScience, 2024):

Assays:
Assay in all cases: microscale thermophoresis
Assay type in all cases: binding
septin6 = biological target: T1, septin6 (Homo sapiens, UniProt Q14141)
T1 sequence (Q14141 2-434): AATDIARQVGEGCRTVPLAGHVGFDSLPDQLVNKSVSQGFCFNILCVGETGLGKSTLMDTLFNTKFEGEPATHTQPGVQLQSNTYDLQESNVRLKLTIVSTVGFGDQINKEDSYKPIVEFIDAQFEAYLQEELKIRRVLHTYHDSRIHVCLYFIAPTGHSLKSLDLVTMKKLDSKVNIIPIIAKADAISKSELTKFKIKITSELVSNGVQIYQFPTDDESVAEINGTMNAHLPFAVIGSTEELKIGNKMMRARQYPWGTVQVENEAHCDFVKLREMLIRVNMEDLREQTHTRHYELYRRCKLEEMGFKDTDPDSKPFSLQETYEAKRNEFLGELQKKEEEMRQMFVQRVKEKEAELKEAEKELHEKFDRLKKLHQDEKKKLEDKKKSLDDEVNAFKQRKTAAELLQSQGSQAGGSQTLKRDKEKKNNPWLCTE

septin7 = biological target: T2, septin7 (Homo sapiens, UniProt Q16181)
T2 sequence (Q16181 2-437): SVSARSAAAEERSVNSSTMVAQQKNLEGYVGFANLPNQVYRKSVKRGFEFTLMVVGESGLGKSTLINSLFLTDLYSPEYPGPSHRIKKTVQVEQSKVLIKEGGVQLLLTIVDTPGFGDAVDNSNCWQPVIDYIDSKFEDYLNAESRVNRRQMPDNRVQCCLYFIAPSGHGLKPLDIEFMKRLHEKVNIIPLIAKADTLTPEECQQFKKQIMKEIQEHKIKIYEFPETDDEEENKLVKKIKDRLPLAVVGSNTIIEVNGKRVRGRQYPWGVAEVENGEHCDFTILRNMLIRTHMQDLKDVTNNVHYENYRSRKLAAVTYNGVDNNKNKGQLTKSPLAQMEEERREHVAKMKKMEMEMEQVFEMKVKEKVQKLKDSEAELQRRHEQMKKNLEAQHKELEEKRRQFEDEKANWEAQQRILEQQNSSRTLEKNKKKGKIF

septin2 = biological target: T3, septin2 (Homo sapiens, UniProt Q15019)
T3 sequence (Q15019 1-361): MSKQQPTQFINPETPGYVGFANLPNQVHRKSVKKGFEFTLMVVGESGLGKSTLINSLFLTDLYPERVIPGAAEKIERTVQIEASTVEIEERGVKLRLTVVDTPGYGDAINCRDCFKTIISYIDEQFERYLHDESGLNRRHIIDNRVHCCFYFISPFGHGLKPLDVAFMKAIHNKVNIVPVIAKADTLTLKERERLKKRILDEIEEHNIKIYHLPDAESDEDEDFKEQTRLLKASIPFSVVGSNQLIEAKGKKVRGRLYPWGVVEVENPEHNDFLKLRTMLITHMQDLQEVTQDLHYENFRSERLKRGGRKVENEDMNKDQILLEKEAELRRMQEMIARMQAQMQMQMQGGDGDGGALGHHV

How did the Kd (septin6) turn out when `OC1(c2ccc(Cl)c(C(F)(F)F)c2)CCN(CCCC(c2ccc(F)cc2)c2ccc(F)cc2)CC1` [PFD, penfluridol] was run?
The Kd was 43.1 µM.

And the Kd (septin7)?
The Kd was 0.98 µM.

And the Kd (septin2)?
Its Kd is 54.8 µM.
